Measured values taken from patent US20210290680A1, “METHODS AND COMPOSITIONS FOR MODULATING CELLULAR AGING” (Dorian Therapeutics, Inc., priority 2019, published 2021).

Assays:
[1] = system: primary T cells; test: Stem cell memory T cell phenotype by flow cytometry (CD45RA+CD62L+); format: cell-based, human; details: for stem cell frequency (Tscm phenotype ratio), fold increase over Control: day 20, gated on CD8
Method: Primary T cells were activated as described (Example 3), transduced with a lentivirus encoding for either a shUSP16 or a non-targeting shRNA (Ctrl) and sorted for GFP on day 8. Cells were cultured in the presence of IL-2 and their phenotype was analyzed at day 20. Cells were stained for CD4-PerCP-5.5 or CD8-BV510, CD62L-Allophycocyanin, CD45RA-BV510 or PE-Cy7 (Biolegend). Naïve or stem cell memory T cells (TNa/SCM) were identified as Sytox^− GFP^+CD45RA^+CD62L^+. Number of TNa/SCM was calculated as (#CD4 or CD8 T cells*TNa/SCMpercentage)/100. Flow cytometry was performed on the MACQuant (Myltenyi Biotec) and the data analyzed with FlowJo (shCtrl vs shUSP CD4: 0.4978 vs 0.7915, p=0.0673 and CD8: 2.469 vs 4.984, p=0.00392, n=7). Downregulation of USP16 expression increases the number of CD4+CD45RA+CD62L+(FIG. 11A) and CD8+CD45RA+CD62L+(FIG. 11B) cells in culture by 1.7 (p=0.0205) and 1.9 (p=0.0097) times, respectively.
Primary T cells were activated as described (Example 3), transduced with a lentivirus encoding either a shUSP16 #1, shUSP16 #2 or a non-targeting shRNA (shCtrl) and cells were selected with puromycin at day 6. At day 15 cell were collected and analyzed by qPCR for the expression of LEF1 (FIG. 16A) and TCF7 (FIG. 16B), downstream regulators of the WNT pathway. At day 20, cells were stained for CD4-PE, CD8-BV510, CD62L-Allophycocyanin and CD45RA-APC-Cy7 (Biolegend). Stem cell memory T cells (Tscm) were identified as Sytox^− GFP^+CD45RA^+CD62L^+, central memory T cells (Tcm) as Sytox^−GFP^+CD45RA^−CD62L^+, effector memory T cells (Tem) as Sytox^−GFP^+CD45RA^−CD62L^−, and terminal effector T cell (Teff) as Sytox^−GFP^+CD45RA^+CD62L^− (FIG. 17A). Cells were gated on the CD8 population. The specific increase of Tscm was shown as phenotype ratio (FIG. 17B).
Primary T cells were activated as described (Example 3). At Day 6 post-activation, dynabeads were removed and T cells electroporated using the Neon Transfection System (ThermoFisher) with a 2.5:1 ratio sgRNA:Cas9. The experiment was performed following the protocol optimized for primary T cell by Synthego (CRISPR Editing Human Primary CD4+ T cells with RNPs using Neon Electroporation Protocol, 2018 version). The sgRNA used are the following: gUSP16 #1 5′-[…]-3′ (SEQ ID NO: 10) and gSynthego that comprises 3 different sgRNAs (gRNA-A: 5′-[…] 3′ (SEQ ID NO: 11); gRNA-B: 5′-[…]-3′ (SEQ ID NO: 12); gRNA-C: 5′-[…]-3′ (SEQ ID NO: 13)). Control T cells, identified as Mock, were electroporated but no Cas9:sgRNA mixture was added. […] At day 15 post-activation, cells were stained for CD4-PE, CD8-BV510, CD62L-Allophycocyanin and CD45RA-APC-Cy7 (Biolegend). Stem cell memory T cells (Tscm) were identified as Sytox^−GFP^+CD45RA^+CD62L^+ and graphed as ratio compared to mock cells (FIG. 22). The experiment was repeated using primary T cells obtained from buffy coats of 2 different healthy donors.
Primary T cells were activated as described (Example 3), transduced with a lentivirus encoding for either a CD19.CAR or a GD2.CAR co-expressing shUSP16 #1, shUSP16 #2 or a scrambled shRNA (Control). At day 15, GD2.CAR and CD19.CAR T cells were stained for EGFR-AF488 (R&D), CD3-PE, CD8-BV510, CD62L-Allophycocyanin and CD45RA-APC-Cy7 (Biolegend). Stem cell memory T cells (Tscm) were identified as FITC^+CD45RA^+CD62L^+, central memory T cells (Tcm) as FITC^+CD45RA^−CD62L^+, effector memory T cells (Tem) as FITC^+CD45RA^−CD62L^−, and terminal effector T cell (Teff) as FITC^+CD45RA^+CD62L^−. Cells were gated on the CD8 population. The specific increase of Tscm was shown as phenotype ratio (FIGS. 28A and 28B).

[2] = system: Axin-2; test: qPCR of WNT pathway gene Axin-2; format: cell-based, human; details: day 15, n=4; for Axin-2 expression, fold change vs Control: CD19.CAR
Description: Primary T cells were activated as described (Example 3), transduced with a lentivirus encoding for either a CD19.CAR or a GD2.CAR co-expressing shUSP16 #1, shUSP16 #2 or a scrambled shRNA (Control). Fifteen days post-activation, T cells were collected and qPCR performed. TaqMan probes detecting CDKN1A, CDKN2A (FIGS. 26A and 26B) (fold change GD2.CAR (n=4): CDKN1A Control vs shUSP #1: 0.4360, p<0.0001, and Control vs shUSP16 #2: 3.036, p=0.004 respectively. Fold change CD19.CAR (n=4): CDKN2a, CDKN1A Control vs shUSP #1: 0.6906, p=0.0026; 0.7228, p=0.0297 and Control vs shUSP16 #2: 0.8385, p=0.2325; 0.7017, p=0.0021), TCF7, LEF1, and Axin-2 (FIGS. 27A and B) were analyzed in GD2.CAR and CD19.CAR-expressing cells, respectively. ACTB was used as internal control. (GD2.CAR (n=4) TCF7, LEF1 and Axin-2: Control vs shUSP #1: 1.914 p=0.0512; 1.795 p=0.0323; 3.269 p=0.15 and Control vs shUSP16 #2: 1.284 p=0.0494; 1.718 p=0.0586; 2.035p=0.235, respectively. Fold change CD19.CAR (n=4): TCF7, LEF1 and Axin-2: Control vs shUSP #1: 1.528, p=0.0277; 1.82, p=0.0449; 1.998, p=0.031 and Control vs shUSP16 #2: 1.18, p=0.2002; 1.579, p=0.0632; 1.261, p=0.2382). USP16 downregulation in CAR-T cells results in a decreased expression of senescence markers and an increase in the expression of genes associated with the activation/increased signaling of the WNT pathway, indicating its importance in delaying cellular senescence and increasing self-renewal.

With “shUSP16 #1: shRNA targeting USP16, 5′-GACTGTAAGACTGACAATAAA-3′ (SEQ ID NO: 8), pSIH backbone or co-expressed in CAR plasmid” the “stem cell frequency (Tscm), fold change vs Control” value ([1]; CD19.CAR, day 15, n=5) was 1.994, the “stem cell frequency (Tscm), fold change vs Control” value ([1]; GD2.CAR, day 15, n=4) was 1.347 and the “stem cell frequency (Tscm phenotype ratio), fold increase over Control” value [1] was 2.022. The “Axin-2 expression, fold change vs Control” value [2] was 1.998 and the “Axin-2 expression vs Control” value ([2]; GD2.CAR) was 3.269.

In the case of “shUSP16 #2: shRNA targeting USP16, 5′-TATATCAGTTCACCCGTAAT-3′ (SEQ ID NO: 9), pSIH backbone or co-expressed in CAR plasmid”, the “stem cell frequency (Tscm), fold change vs Control” value ([1]; CD19.CAR, day 15, n=5) is reported as 2.273, the “stem cell frequency (Tscm), fold change vs Control” value ([1]; GD2.CAR, day 15, n=4) is reported as 1.383 and the “stem cell frequency (Tscm phenotype ratio), fold increase over Control” value [1] is reported as 2.63. The “Axin-2 expression, fold change vs Control” value [2] was 1.261.
